Results: patent US11773096B2, “Small-molecule PI5P4K alpha/beta inhibitors and methods of treatment using same” (YALE UNIVERSITY, priority 2018, dated 2023)

What was measured:
BT474 cells [1] = experiment: Proliferation (CellTiter-Glo); type: cell-based
Description: To measure cell number using the CellTiter-Glo 2.0 assay kit (Promega), cultured cells were equilibrated to room temperature for 30 min, and an equal volume of the CellTiter-Glo reagent was added and mixed for 2 min on an orbital shaker. The plates were incubated for another 10 min before luminescence was recorded using a SpectraMax M5 plate reader. To assess the effect of compound on growth, cells were plated onto white solid-bottom 96-well plates (coming 3917) at 2,000 cells per well in sextuplicate. After 24 hrs, compound (or DMSO control) was added to the wells, and cell number was determined after culturing for 0, 24, 48, and 72 hrs.

C2Cl2 myotubes = experiment: Immunoblot analysis of signaling in C2Cl2 myotubes; type: cell-based, mouse
Description: BT-474 and MCF7 breast cancer cells, C2Cl2 mouse myoblast cells, and HEK 293T cells were maintained in high-glucose DMEM medium containing 10% FBS. L6 rat myoblast cells were maintained in α-MEM medium containing 10% FBS. For differentiation into myotubes, C2Cl2 cells were kept in DMEM medium containing 2% horse serum for 5 days, and L6 cells were kept in α-MEM medium containing 2% FBS for 7 days. Amino-acid-free DMEM medium was prepared using powder from USBio, and MEM amino acids solution was from Gibco. Media were all supplemented with 100 U/ml penicillin/streptomycin. Cell lines were purchased from ATCC.
After wash with cold DPBS buffer, cells were lysed in RIPA buffer that contained 50 mM Tris-HCl pH 8.0, 150 mM NaCl, 1 mM EDTA, 1 mM EGTA, 1% NP-40, 0.5% sodium deoxycholate, 0.1% SDS, and protease and phosphatase inhibitor cocktails (Roche). Total protein concentrations were measured using a BCA assay (Thermo scientific). Cell lysate (about 80 μg protein) was resolved by SDS-PAGE and blotted onto PVDF membranes. The membranes were probed overnight at 4° C. with appropriate primary antibodies (Cell Signaling Technology) and incubated with secondary fluorescent antibodies (LI-COR Biosciences) for 1 hr at room temperature before imaging by an Odyssey CLx system.

mTOR/FRAP1 = mTOR/FRAP1 (Homo sapiens, UniProt P42345); experiment: In vitro kinase profiling; type: biochemical
L6 myotubes = experiment: 2-deoxyglucose uptake; type: cell-based, rat; settings: overnight treatment with 20 μM 7a or 1 mM metformin
Description: To measure 2-deoxyglucose (2-DG) uptake, L6 myotubes were treated with compound or DMSO control overnight in the absence of serum in α-MEM. Following treatment, cells were washed twice with KRH buffer (50 mM HEPES pH 7.4, 137 mM NaCl, 4.7 mM KCl, 1.85 mM CaCl2, 1.3 mM MgSO4) containing 0.1% BSA. Residual wash buffer was removed by aspiration. Cells were then incubated for 10 min at 37° C. in a KRH buffer containing 0.1% BSA, 5 mM unlabeled 2-DG and 2 μCi/ml [1,2-^3H(N)]-2-deoxy-D-glucose (PerkinElmer). The uptake was terminated by washing four times with ice-cold KRH buffer containing 0.1% BSA. Nonspecific 2-DG uptake into cells was determined in the presence of 10 μM cytochalasin B, which inhibits glucose transporters, and subtracted. The cells were lysed with 0.05 M NaOH for 2 hrs at 37° C. 10 μl cell lysate was used to quantify protein concentration by BCA assay. The remaining sample was transferred to a scintillation vial containing 3 ml Opti-Fluor liquid scintillation cocktail (PerkinElmer), and radioactivity was determined using a Beckman Coulter LS 6500 scintillation system and normalized against protein concentration.

p110α/p85α = p110α/p85α (Homo sapiens, UniProt P42336); experiment: In vitro lipid kinase profiling
Plk1 = Plk1 (Homo sapiens, UniProt P53350); experiment: Plk1 kinase assay kit (Promega, ADP-Glo); settings: ATP 50 μM
Description: (§1) In both titrations, the ATP concentration was fixed at 50 μM. The assay kits for Plk1 and RSK2 were obtained from Promega (Madison, Wis.), which use ADP-Glo™ for activity detection.

PI4P5Kγ = PI4P5Kγ (Homo sapiens, UniProt O60331); experiment: Lipid kinase panel (ADP-Glo); settings: read-out: PI4P5Kγ activity remaining
RSK2 [2] = target: T1, RSK2 (Homo sapiens, UniProt P51812); experiment: RSK2 kinase assay kit (Promega, ADP-Glo)
T1 sequence (P51812 whole entry): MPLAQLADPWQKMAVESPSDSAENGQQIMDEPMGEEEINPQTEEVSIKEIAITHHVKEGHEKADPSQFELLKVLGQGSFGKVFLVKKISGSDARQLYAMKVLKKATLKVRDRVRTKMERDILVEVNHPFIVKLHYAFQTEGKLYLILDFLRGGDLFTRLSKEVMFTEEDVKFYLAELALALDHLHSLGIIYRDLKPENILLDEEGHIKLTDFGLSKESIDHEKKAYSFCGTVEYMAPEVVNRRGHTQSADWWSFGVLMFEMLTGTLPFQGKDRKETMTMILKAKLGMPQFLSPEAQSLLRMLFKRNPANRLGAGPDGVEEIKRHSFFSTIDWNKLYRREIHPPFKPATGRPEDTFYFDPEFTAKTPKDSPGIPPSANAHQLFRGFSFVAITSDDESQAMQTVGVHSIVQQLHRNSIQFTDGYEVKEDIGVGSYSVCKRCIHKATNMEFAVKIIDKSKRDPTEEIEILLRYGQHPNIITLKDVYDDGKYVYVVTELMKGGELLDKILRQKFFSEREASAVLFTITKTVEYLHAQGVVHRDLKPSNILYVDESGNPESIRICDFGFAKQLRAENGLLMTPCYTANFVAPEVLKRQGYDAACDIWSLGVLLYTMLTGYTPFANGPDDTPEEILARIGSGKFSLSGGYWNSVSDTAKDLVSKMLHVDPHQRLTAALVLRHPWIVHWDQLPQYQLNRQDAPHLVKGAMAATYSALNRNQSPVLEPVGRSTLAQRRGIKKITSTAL
Description: The assay kits for Plk1 and RSK2 were obtained from Promega (Madison, Wis.), which use ADP-Glo™ for activity detection.

PLK2 = PLK2 (Homo sapiens, UniProt Q9NYY3); experiment: HotSpot protein kinase panel; settings: read-out: PLK2 activity remaining
Sequence of PLK2 (Q9NYY3 whole entry): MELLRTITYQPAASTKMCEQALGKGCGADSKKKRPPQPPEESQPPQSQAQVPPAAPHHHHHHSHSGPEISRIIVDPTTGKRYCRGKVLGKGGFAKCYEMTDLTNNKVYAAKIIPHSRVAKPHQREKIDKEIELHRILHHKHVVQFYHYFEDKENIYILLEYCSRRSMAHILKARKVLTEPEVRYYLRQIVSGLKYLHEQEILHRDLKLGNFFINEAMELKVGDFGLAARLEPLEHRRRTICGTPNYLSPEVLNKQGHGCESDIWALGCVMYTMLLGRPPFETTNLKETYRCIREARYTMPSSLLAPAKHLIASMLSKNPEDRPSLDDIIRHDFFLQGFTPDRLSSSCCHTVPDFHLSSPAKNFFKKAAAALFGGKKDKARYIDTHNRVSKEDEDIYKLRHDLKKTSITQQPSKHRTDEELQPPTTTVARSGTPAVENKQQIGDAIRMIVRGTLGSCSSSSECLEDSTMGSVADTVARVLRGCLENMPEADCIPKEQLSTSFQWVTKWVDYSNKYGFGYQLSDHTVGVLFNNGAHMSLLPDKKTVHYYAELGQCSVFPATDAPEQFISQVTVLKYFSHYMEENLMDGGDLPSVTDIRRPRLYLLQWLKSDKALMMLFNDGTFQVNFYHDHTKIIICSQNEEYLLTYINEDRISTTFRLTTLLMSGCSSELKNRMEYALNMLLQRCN
Description: as §1

BT474 cells [3] = experiment: Cell cycle analysis by flow cytometry; type: cell-based
Description: To monitor cell cycle progression, cells were harvested by trypsinization, washed with DPBS, and fixed with cold 70% ethanol for 30 min at 4° C. Before analysis, 2×10^6 cells were washed with DPBS three times and treated with 100 μl 100 μg/ml ribonuclease (DNase-free; Sigma Aldrich) for 10 min at room temperature. Samples were then stained for total DNA using 400 μl DPBS containing 50 μg/ml propidium iodide (Invitrogen). Cell cycle distribution was analyzed by a BD LSR II flow cytometer.

RSK2 [4] = target: T1, RSK2; experiment: HotSpot protein kinase panel; settings: read-out: RSK2 activity remaining
Description: as §1

NEK1 = NEK1 (Homo sapiens, UniProt Q96PY6); experiment: HotSpot protein kinase panel; settings: read-out: NEK1 activity remaining
Sequence of NEK1 (Q96PY6 whole entry): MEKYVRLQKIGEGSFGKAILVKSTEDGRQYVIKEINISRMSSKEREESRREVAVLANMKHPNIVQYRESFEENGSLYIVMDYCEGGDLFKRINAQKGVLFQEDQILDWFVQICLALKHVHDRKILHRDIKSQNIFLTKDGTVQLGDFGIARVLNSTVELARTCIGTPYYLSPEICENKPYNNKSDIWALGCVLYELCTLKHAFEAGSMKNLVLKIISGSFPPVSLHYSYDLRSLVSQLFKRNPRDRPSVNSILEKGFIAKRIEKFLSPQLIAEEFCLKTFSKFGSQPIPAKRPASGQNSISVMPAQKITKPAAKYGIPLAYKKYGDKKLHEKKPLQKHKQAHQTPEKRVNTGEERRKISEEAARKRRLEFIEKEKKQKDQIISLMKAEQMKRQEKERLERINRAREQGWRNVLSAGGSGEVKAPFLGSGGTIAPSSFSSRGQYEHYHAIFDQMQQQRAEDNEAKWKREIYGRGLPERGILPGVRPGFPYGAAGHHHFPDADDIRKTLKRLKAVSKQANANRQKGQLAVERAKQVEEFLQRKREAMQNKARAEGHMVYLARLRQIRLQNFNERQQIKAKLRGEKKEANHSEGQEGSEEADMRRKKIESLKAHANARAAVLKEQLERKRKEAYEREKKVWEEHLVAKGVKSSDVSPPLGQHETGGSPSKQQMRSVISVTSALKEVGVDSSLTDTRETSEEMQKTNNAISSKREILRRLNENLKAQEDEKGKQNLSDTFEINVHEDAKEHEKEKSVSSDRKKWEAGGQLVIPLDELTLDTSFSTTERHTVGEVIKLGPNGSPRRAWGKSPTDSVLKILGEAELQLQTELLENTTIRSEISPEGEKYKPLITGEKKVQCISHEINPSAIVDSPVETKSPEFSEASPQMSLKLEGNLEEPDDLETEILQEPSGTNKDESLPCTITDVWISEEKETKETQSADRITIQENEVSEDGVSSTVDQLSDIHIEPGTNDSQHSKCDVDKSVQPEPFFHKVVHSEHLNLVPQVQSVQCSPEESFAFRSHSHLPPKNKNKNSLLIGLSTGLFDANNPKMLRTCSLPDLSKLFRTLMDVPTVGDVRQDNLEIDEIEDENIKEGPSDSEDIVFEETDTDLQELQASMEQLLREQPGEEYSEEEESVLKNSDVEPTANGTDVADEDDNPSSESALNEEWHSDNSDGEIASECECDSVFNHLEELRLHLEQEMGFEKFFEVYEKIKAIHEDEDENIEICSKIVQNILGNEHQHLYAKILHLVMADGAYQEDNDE

TYRO3 = TYRO3 (Homo sapiens, UniProt Q06418); experiment: HotSpot protein kinase panel; settings: read-out: TYRO3 activity remaining
PIKfyve = PIKfyve (Homo sapiens, UniProt Q9Y2I7); experiment: Lipid kinase assay
Sequence of PIKfyve (Q9Y2I7 whole entry, species assumed): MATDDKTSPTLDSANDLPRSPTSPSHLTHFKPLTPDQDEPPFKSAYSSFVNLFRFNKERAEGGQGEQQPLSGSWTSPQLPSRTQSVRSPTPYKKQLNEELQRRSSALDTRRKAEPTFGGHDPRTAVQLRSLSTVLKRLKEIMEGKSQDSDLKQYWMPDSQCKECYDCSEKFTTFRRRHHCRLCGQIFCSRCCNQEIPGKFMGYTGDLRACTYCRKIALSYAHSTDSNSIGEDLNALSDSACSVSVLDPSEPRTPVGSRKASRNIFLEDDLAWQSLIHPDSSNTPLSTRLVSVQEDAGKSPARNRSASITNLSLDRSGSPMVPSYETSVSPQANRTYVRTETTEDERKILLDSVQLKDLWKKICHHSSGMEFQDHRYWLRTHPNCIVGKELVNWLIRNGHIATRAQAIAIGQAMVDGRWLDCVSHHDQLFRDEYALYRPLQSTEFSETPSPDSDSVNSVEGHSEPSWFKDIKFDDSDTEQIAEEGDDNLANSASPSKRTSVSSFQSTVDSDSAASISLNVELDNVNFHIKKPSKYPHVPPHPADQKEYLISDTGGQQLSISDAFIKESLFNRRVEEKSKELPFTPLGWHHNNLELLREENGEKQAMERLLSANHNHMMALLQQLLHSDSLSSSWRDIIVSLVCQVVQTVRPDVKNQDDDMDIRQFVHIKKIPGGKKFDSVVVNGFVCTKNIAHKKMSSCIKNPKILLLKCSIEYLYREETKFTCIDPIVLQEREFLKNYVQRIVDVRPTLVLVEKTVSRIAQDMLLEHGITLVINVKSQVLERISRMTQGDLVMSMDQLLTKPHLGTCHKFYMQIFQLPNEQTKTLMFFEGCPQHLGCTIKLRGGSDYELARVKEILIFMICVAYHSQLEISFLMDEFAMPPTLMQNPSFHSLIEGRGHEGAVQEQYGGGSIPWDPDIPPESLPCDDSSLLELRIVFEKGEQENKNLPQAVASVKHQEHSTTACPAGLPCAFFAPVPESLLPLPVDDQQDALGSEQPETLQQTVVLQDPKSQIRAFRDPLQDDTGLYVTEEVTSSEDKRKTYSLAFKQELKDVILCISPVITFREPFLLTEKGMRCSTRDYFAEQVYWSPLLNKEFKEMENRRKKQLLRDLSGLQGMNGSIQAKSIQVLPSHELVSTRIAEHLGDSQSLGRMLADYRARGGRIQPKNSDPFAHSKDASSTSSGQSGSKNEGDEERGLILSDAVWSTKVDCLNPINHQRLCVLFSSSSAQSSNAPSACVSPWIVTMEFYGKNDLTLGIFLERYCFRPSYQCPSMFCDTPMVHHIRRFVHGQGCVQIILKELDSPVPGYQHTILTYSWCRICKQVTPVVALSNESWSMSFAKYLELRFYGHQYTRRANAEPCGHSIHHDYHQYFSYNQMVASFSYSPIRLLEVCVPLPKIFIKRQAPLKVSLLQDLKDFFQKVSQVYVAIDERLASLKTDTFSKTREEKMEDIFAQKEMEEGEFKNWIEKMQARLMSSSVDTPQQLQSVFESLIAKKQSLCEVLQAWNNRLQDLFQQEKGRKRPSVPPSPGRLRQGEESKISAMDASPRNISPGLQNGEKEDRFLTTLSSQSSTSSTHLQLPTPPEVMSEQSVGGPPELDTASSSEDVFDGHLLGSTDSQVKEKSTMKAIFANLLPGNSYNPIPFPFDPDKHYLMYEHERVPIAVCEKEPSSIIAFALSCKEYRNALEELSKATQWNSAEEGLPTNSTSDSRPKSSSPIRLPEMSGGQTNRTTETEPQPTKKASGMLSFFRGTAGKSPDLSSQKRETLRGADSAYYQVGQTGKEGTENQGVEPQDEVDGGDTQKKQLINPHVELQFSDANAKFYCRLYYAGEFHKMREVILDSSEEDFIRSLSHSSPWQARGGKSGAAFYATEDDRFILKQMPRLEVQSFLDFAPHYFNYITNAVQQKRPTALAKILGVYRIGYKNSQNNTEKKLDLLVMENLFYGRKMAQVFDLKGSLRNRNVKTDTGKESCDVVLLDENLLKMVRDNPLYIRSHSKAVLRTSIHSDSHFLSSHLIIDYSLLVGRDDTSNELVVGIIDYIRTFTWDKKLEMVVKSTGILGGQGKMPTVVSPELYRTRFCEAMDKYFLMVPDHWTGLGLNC

SMILES: CN1C(=O)[C@@H](CC2CCCC2)N(C2CCCC2)c2nc(Nc3cc(Cl)c(O)c(Cl)c3)ncc21 [7a, (R)-8-cyclopentyl-7-(cyclopentylmethyl)-2-((3,5-dichloro-4-hydroxyphenyl)amino)-5-methyl-7,8-dihydropteridin-6(5H)-one]
- sensitivity of BT474 growth to inhibition at 32° C. (BT474 cells [1]; 32° C. (restores p53 function)): less sensitive
- growth of BT474 cells (BT474 cells [1]; dose-dependent, 37° C.): inhibited
- basal and insulin-induced phosphorylation of S6K at Thr-389 (C2Cl2 myotubes): reduced
- phosphorylation of acetyl-CoA carboxylase (ACC) (C2Cl2 myotubes; C2Cl2 myotubes, dose-dependent): significantly increased
- IRS phosphorylation at Ser-302 (C2Cl2 myotubes; FIG. 3D): reduced
- Akt phosphorylation (C2Cl2 myotubes; FIG. 3D, comparison 7a vs rapamycin): more pronounced effect
- hormone-induced Akt phosphorylation, especially at Ser-473 (C2Cl2 myotubes; overnight incubation with 20 μM): increased
- inhibition of mTOR/FRAP1 in vitro (mTOR/FRAP1): did not inhibit
- rate of glucose uptake (labeled 2-deoxyglucose) (L6 myotubes): doubled
- inhibition of p110α/p85α (p110α/p85α): not inhibited
- inhibition of Plk1 (Plk1): no longer inhibited
- remaining activity at 0.5 µM (PI4P5Kγ): 98%
- Ki (RSK2 [2]): ~1000 nM
- calculated RSK2 activity, % of DMSO control (RSK2 [2]; calculated for 0.5 μM 7a and 20 μM ATP): 79%
- remaining activity at 0.5 µM (PLK2): 75%
- cell cycle distribution (BT474 cells [3]): accumulation of cells in the G0/G1 phase
- remaining activity at 0.5 µM (RSK2 [4]): 83%
- remaining activity at 0.5 µM (NEK1): 67%
- remaining activity at 0.5 µM (TYRO3): 72%
- Ki (PIKfyve): ~200 nM
